Tests used:
cIAP1 BIR3 = molecular target: T1, cIAP1 BIR3 (Homo sapiens, UniProt Q13490); test: cIAP1 BIR3 fluorescence polarization binding assay; conditions: 5 nM probe, 20 nM cIAP1 BIR3
T1 construct: isolated BIR3 domain of human cIAP1 (amino acids 258-363); cIAP1; His; GST; purchased RBC APT-11-370; host or cells: E. coli
Source text: (§1) Buffer system (a buffer for cIAP1 BIR3 or XIAP BIR3): 0.1 mollL potassium phosphate, pH 7.5, 0.1% bovine serum albumin, 0.005% Triton X-100 and 1% dimethyl sulfoxide.
(§2) Probe: ARPFAQ-K(5-FAM)-NH2.
cIAP1-BIR3-his: RBC (Cat# APT-11-370), isolated BIR3 domain of human cIAP1 (amino acids 258-363; cIAP1
BIR3) expressed by E. coli as GST-fusion protein.
(§3) XIAP-BIR3-his: RBC (Cat# APT-11-374), isolated BIR3 domain of XIAP (amino acids 255-356; XIAP BIR3) expressed by E. coli as GST-fusion protein. Condition: 5 nM ARPFAQ-K(5-FAM)-NH2, 20 nM cIAP1 BIR3 and 30 nM XIAP BIR3.
(§4) Firstly, fresh buffer of cIAP1 BIR3 or XIAP BIR3 was prepared, and mixed with 2 folds of cIAP1 BIR3 or XIAP BIR3 solution. A solution of test compound completely dissolved in 100% DMSO via ultrasonication was added to the buffer containing cIAP1 BIR3 or XIAP BIR3. The mixture was added with 2 folds of probes, mixed and incubated for 60 min in the dark at room temperature. Fluorescence polarization was measured and mP value was calculated, finally giving an IC50 value.

XIAP BIR3 = molecular target: T2, XIAP BIR3 (Homo sapiens, UniProt P98170); test: XIAP BIR3 fluorescence polarization binding assay; conditions: 5 nM probe, 30 nM XIAP BIR3
T2 construct: isolated BIR3 domain of XIAP (amino acids 255-356; XIAP BIR3); His; GST; purchased RBC APT-11-374; host or cells: E. coli
T2 sequence (P98170 255-356): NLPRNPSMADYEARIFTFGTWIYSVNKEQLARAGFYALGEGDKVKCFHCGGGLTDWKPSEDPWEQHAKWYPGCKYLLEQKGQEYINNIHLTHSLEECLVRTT
Procedure: as §1, §2, §3, §4

[1] = system: MDA-MB-231 triple negative breast cancer CDX; test: In vivo efficacy study 1, MDA-MB-231 triple negative breast cancer CDX model; parameters: species or system BALB/c nude mice
Procedure: (§5) In vivo efficacy study was conducted on BALB/c nude mice by subcutaneously implanting human tumor cell line-derived xenograft (CDX) from MDA-MB-231 triple negative breast cancer patients
(§6) BALB/c nude mice, female, aged 6-8 weeks, about 18-22 g, were kept in a special pathogen-free environment and in separate ventilated cages (3 mice per cage). All cages, bedding and water were disinfected prior to use. All animals had free access to standard certified commercial laboratory diets. 48 mice were purchased from Shanghai BK Laboratory Animal Co., LTD. for the study. Each mouse was implanted subcutaneously in the right flank with cancer cells (10×10^6 cells in 0.2 mL of phosphate buffered saline) for tumor growth. The mice were administered when the mean tumor volume reached about 147 mm^3. The test compounds were administered orally at a daily dose of 30 mg/kg. Tumor volume was measured every 3 days with a two-dimensional caliper, and the volume was measured in mm^3 and calculated according to the following formula: V=0.5×a×b^2, where a and b are the long and short diameters, respectively, of the tumor. Anti-tumor efficacy was determined by dividing the mean tumor increase volume of compound-treated animals by the mean tumor increase volume of untreated animals

[2] = system: MDA-MB-231 triple negative breast cancer CDX; test: In vivo efficacy study 2, MDA-MB-231 triple negative breast cancer CDX model; parameters: species or system BALB/c nude mice
Procedure: as §5
as §6, with “tumor” for “cancer”, “(10×10^6” for “(10×10^6 cells”, “buffer)” for “buffered saline)”, “110” for “147”

[3] = Hygroscopicity study (DVS); assay type: physicochemical
Procedure: Instrument model: SMS DVS Advantage
Test conditions: crystalline form A of the compound of formula (I) (10-15 mg) was placed in a DVS sample tray for testing.
The DVS parameters are as follows: • Temperature: 25° C. • Balancing: dm/dt=0.01%/min (shortest: 10 min, longest: 180 min) • Drying: drying at 0% RH for 120 min • RH (%) measurement gradient: 10% • RH (%) measurement gradient range: 0%-90%-0%

[4] = Influencing factor (high temperature, high humidity) and irradiation stability tests; assay type: physicochemical
[5] = Long-term accelerated stability test; assay type: physicochemical
Procedure: Long-term accelerated test: 22 parts of crystalline form A of the compound of formula (I) each containing 1 50 g were prepared. The samples were separately put into a double-layer LDPE bag with each layer of LDPE bag sealed separately. The bag was then put into an aluminum foil bag for heat sealing. At inspection time points, the corresponding test samples were taken out, covered with bottle caps. 0-day samples were thawed to room temperature and directly analyzed. Approximately 10 mg of the test article was subjected to XRPD. The compounds were placed in the following conditions and samples were taken at different time points for determining their properties, XRPD pattern, content and related substances.

T1 sequence (Q13490 258-363): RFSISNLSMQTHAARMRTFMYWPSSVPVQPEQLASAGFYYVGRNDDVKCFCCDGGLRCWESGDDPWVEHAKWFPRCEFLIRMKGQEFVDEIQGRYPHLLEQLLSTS

CN[C@@H](C)C(=O)N[C@H](C(=O)N1CCC[C@H]1Cn1cc(C(C)=O)c2cc(Cl)ccc21)C1CCCCC1 [Compound of formula (I)]
IC50 (cIAP1 BIR3): 5 nM | IC50 (XIAP BIR3): 29.9 nM | Tumor volume (mm^3) ([1]; 6 days, 30 mg/kg oral daily): 214 mm^3 | Tumor volume (mm^3) ([1]; 13 days, 30 mg/kg oral daily): 282 mm^3 | Tumor volume (mm^3) ([1]; 20 days, 30 mg/kg oral daily): 810 mm^3 | Tumor volume (mm^3) ([1]; Day 0, 30 mg/kg oral daily): 147 mm^3 | Tumor volume (mm^3) ([2]; 5 days, 30 mg/kg oral daily): 111 mm^3 | Tumor volume (mm^3) ([2]; 12 days, 30 mg/kg oral daily): 86 mm^3 | Tumor volume (mm^3) ([2]; 20 days, 30 mg/kg oral daily): 177 mm^3 | Tumor volume (mm^3) ([2]; Day 0, 30 mg/kg oral daily): 110 mm^3

CN[C@@H](C)C(=O)N[C@H](C(=O)N1CCC[C@H]1Cn1cc(C(C)=O)c2cc(Cl)ccc21)C1CCCCC1
hygroscopic weight gain ([3]; 25° C. and 80% RH): 0.72% | Classification of hygroscopicity ([3]; weight gain at 25° C./80% RH): slightly hygroscopic | Content of crystalline form A (%) ([4]; 25° C.-92.5% RH-5 days): 99.1% | Impurity content (%) ([4]; 25° C.-92.5% RH-5 days): 1.16% | Content of crystalline form A (%) ([4]; 25° C.-92.5% RH-10 days): 98.8% | Impurity content (%) ([4]; 25° C.-92.5% RH-10 days): 1.13% | Content of crystalline form A (%) ([4]; 25° C.-92.5% RH-30 days): 99.2% | Impurity content (%) ([4]; 25° C.-92.5% RH-30 days): 1.19% | Content of crystalline form A (%) ([4]; 60° C.-5 days): 99% | Impurity content (%) ([4]; 60° C.-5 days): 1.16% | Content of crystalline form A (%) ([4]; 60° C.-10 days): 98.2% | Impurity content (%) ([4]; 60° C.-10 days): 1.14% | Content of crystalline form A (%) ([4]; 60° C.-30 days): 99.1% | Impurity content (%) ([4]; 60° C.-30 days): 1.19% | Content of crystalline form A (%) ([4]; Day 0): 98.2% | Impurity content (%) ([4]; Day 0): 1.19% | Content of crystalline form A (%) ([4]; Irradiation-5 days): 97.8% | Impurity content (%) ([4]; Irradiation-5 days): 1.12% | Content of crystalline form A (%) ([4]; Irradiation-10 days): 99.3% | Impurity content (%) ([4]; Irradiation-10 days): 1.13% | Crystalline form stability by XRPD versus day 0 ([4]; the various test conditions of Tables 4 and 5): stable | Content of crystalline form A (%) ([5]; 25° C.-60% RH-3 months): 98% | Impurity content (%) ([5]; 25° C.-60% RH-3 months): 1.16% | Content of crystalline form A (%) ([5]; 25° C.-60% RH-6 months): 99.5% | Impurity content (%) ([5]; 25° C.-60% RH-6 months): 1.12% | Content of crystalline form A (%) ([5]; 25° C.-60% RH-9 months): 98.2% | Impurity content (%) ([5]; 25° C.-60% RH-9 months): 1.22% | Content of crystalline form A (%) ([5]; 25° C.-60% RH-12 months): 100.2% | Impurity content (%) ([5]; 25° C.-60% RH-12 months): 1.09% | Content of crystalline form A (%) ([5]; 40° C.-75% RH-1 month): 99.3% | Impurity content (%) ([5]; 40° C.-75% RH-1 month): 1.2% | Content of crystalline form A (%) ([5]; 40° C.-75% RH-2 months): 98.1% | Impurity content (%) ([5]; 40° C.-75% RH-2 months): 1.19% | Content of crystalline form A (%) ([5]; 40° C.-75% RH-3 months): 97.8% | Impurity content (%) ([5]; 40° C.-75% RH-3 months): 1.13% | Content of crystalline form A (%) ([5]; 40° C.-75% RH-6 months): 98.5% | Impurity content (%) ([5]; 40° C.-75% RH-6 months): 1.12% | Content of crystalline form A (%) ([5]; Day 0): 98.2% | Impurity content (%) ([5]; Day 0): 1.19%

Reference: patent US20220177453A1, “CRYSTALLIZATION OF SMAC MIMIC USED AS IAP INHIBITOR AND PREPARATION METHOD THEREOF” (CHIA TAI TIANQING PHARMACEUTICAL GROUP CO., LTD., priority 2019, published 2022)
